Source: patent US12077503B2, “Substituted cyclic amides and their use as herbicides” (FMC CORPORATION, priority 2015, dated 2024)
Like-named read-outs stand apart in the source and are kept apart here.

Tests used:
Assay in all cases: Test A preemergence
Assay type in all cases: in vivo
[1] = tested on: ragweed (common ragweed, Ambrosia elatior); settings: Ambrosia artemisiifolia, pre-emergence, 240 h; for pest or weed control at 125 g/ha: 125 g ai/ha; for pest or weed control at 500 g/ha: 500 g ai/ha
Procedure, shortened: (§1)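 Ratings of 0 (no effect) to 100 (complete control) come from visual comparison with untreated controls roughly 10 d after treatment. Test chemicals, formulated in a non-phytotoxic solvent mixture with surfactant, were applied either as a preemergence directed soil spray on seeded soil or postemergence to one- to two-leaf plants 2 to 10 cm tall.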

[2] = tested on: pigweed (Amaranthus retroflexus); settings: Amaranthus retroflexus, pre-emergence, 240 h; for pest or weed control at 125 g/ha: 125 g ai/ha; for pest or weed control at 500 g/ha: 500 g ai/ha
[3] = tested on: giant foxtail (Setaria faberii); settings: Setaria faberi, pre-emergence, 240 h; for pest or weed control at 125 g/ha: 125 g ai/ha; for pest or weed control at 500 g/ha: 500 g ai/ha
Procedure, shortened: as §1

[4] = tested on: Kochia (Kochia scoparia); settings: Bassia scoparia, pre-emergence, 240 h; for pest or weed control at 125 g/ha: 125 g ai/ha; for pest or weed control at 500 g/ha: 500 g ai/ha
Procedure, shortened: as §1

[5] = tested on: ryegrass, Italian (Italian ryegrass, Lolium multiflorum); settings: Lolium multiflorum, pre-emergence, 240 h; for pest or weed control at 125 g/ha: 125 g ai/ha; for pest or weed control at 500 g/ha: 500 g ai/ha
Procedure, shortened: as §1

[6] = preemergence, 0 to 100 scale where 0 is no effect and 100 is complete control, read-out: Ragweed plant response rating
[7] = Preemergence, visual injury vs untreated controls after approximately 10 d, read-out: Ragweed plant response rating (0 to 100 scale where 0 is no effect and 100 is complete control)
[8] = preemergence, 0 to 100 scale where 0 is no effect and 100 is complete control, read-out: Pigweed plant response rating
[9] = Preemergence, visual injury vs untreated controls after approximately 10 d, read-out: Pigweed plant response rating (0 to 100 scale where 0 is no effect and 100 is complete control)
[10] = preemergence, 0 to 100 scale where 0 is no effect and 100 is complete control, read-out: Foxtail, Giant plant response rating
[11] = Preemergence, visual injury vs untreated controls after approximately 10 d, read-out: Foxtail, Giant plant response rating (0 to 100 scale where 0 is no effect and 100 is complete control)
[12] = preemergence, 0 to 100 scale where 0 is no effect and 100 is complete control, read-out: Kochia plant response rating
[13] = Preemergence, visual injury vs untreated controls after approximately 10 d, read-out: Kochia plant response rating (0 to 100 scale where 0 is no effect and 100 is complete control)
[14] = preemergence, 0 to 100 scale where 0 is no effect and 100 is complete control, read-out: Ryegrass, Italian plant response rating
[15] = Preemergence, visual injury vs untreated controls after approximately 10 d, read-out: Ryegrass, Italian plant response rating (0 to 100 scale where 0 is no effect and 100 is complete control)
[16] = preemergence, visual injury rating about 10 d after treatment, 0 to 100 scale (0 no effect, 100 complete control), read-out: Ragweed plant response rating
[17] = preemergence, visual injury rating about 10 d after treatment, 0 to 100 scale (0 no effect, 100 complete control), read-out: Pigweed plant response rating
[18] = preemergence, visual injury rating about 10 d after treatment, 0 to 100 scale (0 no effect, 100 complete control), read-out: Foxtail, Giant plant response rating
[19] = preemergence, visual injury rating about 10 d after treatment, 0 to 100 scale (0 no effect, 100 complete control), read-out: Kochia plant response rating
[20] = preemergence, visual injury rating about 10 d after treatment, 0 to 100 scale (0 no effect, 100 complete control), read-out: Ryegrass, Italian plant response rating
[21] = Preemergence, visual injury rating after approximately 10 d, read-out: Ragweed plant response rating (0 to 100 scale, 0 is no effect, 100 is complete control)
[22] = Preemergence, visual injury rating after approximately 10 d, read-out: Pigweed plant response rating (0 to 100 scale, 0 is no effect, 100 is complete control)
[23] = Preemergence, visual injury rating after approximately 10 d, read-out: Foxtail, Giant plant response rating (0 to 100 scale, 0 is no effect, 100 is complete control)
[24] = Preemergence, visual injury rating after approximately 10 d, read-out: Kochia plant response rating (0 to 100 scale, 0 is no effect, 100 is complete control)
[25] = Preemergence, visual injury rating after approximately 10 d, read-out: Ryegrass, Italian plant response rating (0 to 100 scale, 0 is no effect, 100 is complete control)

Row | SMILES | pest or weed control at 125 g/ha [1, 6] [%] | pest or weed control at 500 g/ha [1, 7] [%] | pest or weed control at 125 g/ha [2, 8] [%] | pest or weed control at 500 g/ha [2, 9] [%] | pest or weed control at 125 g/ha [3, 10] [%] | pest or weed control at 500 g/ha [3, 11] [%] | pest or weed control at 125 g/ha [4, 12] [%] | pest or weed control at 500 g/ha [4, 13] [%] | pest or weed control at 125 g/ha [5, 14] [%] | pest or weed control at 500 g/ha [5, 15] [%] | pest or weed control at 500 g/ha [1, 16] [%] | pest or weed control at 500 g/ha [2, 17] [%] | pest or weed control at 500 g/ha [3, 18] [%] | pest or weed control at 500 g/ha [4, 19] [%] | pest or weed control at 500 g/ha [5, 20] [%] | pest or weed control at 125 g/ha [1, 21] [%] | pest or weed control at 125 g/ha [2, 22] [%] | pest or weed control at 125 g/ha [3, 23] [%] | pest or weed control at 125 g/ha [4, 24] [%] | pest or weed control at 125 g/ha [5, 25] [%]
1 | O=C1NC[C@H](c2ccc3c(c2)CCO3)[C@H]1C(=O)Nc1ccc(F)cc1F [Compound 902] | 0 | 0 | 0 | 0 | 30 | 90 | 0 | 0 | 0 | 20 | – | – | – | – | – | – | – | – | – | –
2 | CCOc1ccc([C@H]2CN(C)C(=O)[C@@H]2C(=O)Nc2ccccc2F)cc1 [Compound 903] | 0 | 0 | 0 | 0 | 90 | 90 | 20 | 90 | 0 | 0 | – | – | – | – | – | – | – | – | – | –
3 | CCOc1ccc([C@H]2CNC(=O)[C@@H]2C(=O)Nc2ccccc2F)cc1 [Compound 906] | 0 | 0 | 0 | 0 | 0 | 0 | 0 | 0 | 0 | 0 | – | – | – | – | – | – | – | – | – | –
4 | CCOc1ccc([C@H]2CNC(=O)[C@@H]2C(=O)Nc2cccc(F)c2F)cc1 [Compound 907] | 0 | 0 | 0 | 0 | 80 | 90 | 0 | 20 | 0 | 0 | – | – | – | – | – | – | – | – | – | –
5 | Cc1cc(C)cc([C@H]2CNC(=O)[C@@H]2C(=O)Nc2ccccc2C(F)(F)F)c1 [Compound 909] | 0 | 20 | 0 | 0 | 90 | 90 | 0 | 50 | 0 | 30 | – | – | – | – | – | – | – | – | – | –
6 | Cc1cc(C)cc([C@H]2CN(C)C(=O)[C@@H]2C(=O)Nc2ccccc2F)c1 [Compound 910] | 0 | 0 | 0 | 30 | 90 | 100 | 60 | 90 | 50 | 60 | – | – | – | – | – | – | – | – | – | –
7 | Cc1cc(C)cc([C@H]2CN(C)C(=O)[C@@H]2C(=O)Nc2ccccc2C(F)(F)F)c1 [Compound 912] | 0 | 0 | 0 | 0 | 90 | 100 | 60 | 70 | 40 | 50 | – | – | – | – | – | – | – | – | – | –
8 | CN1CC[C@H](c2ccc(F)cc2)[C@@H](C(=O)Nc2ccccc2F)C1=O [Compound 917] | 0 | 0 | 0 | 0 | 30 | 90 | 0 | 0 | 0 | 0 | – | – | – | – | – | – | – | – | – | –
9 | COc1ccc(CN2CC[C@H](c3ccc(F)cc3)[C@@H](C(=O)Nc3cccc(F)c3F)C2=O)cc1 [Compound 919] | 0 | 0 | 0 | 0 | 0 | 0 | 0 | 0 | 0 | 0 | – | – | – | – | – | – | – | – | – | –
10 | O=C(Nc1cccc(F)c1F)[C@H]1C(=O)N(C2CC2)CC[C@@H]1c1cccc(C(F)(F)F)c1 [Compound 925] | 0 | 0 | 0 | 0 | 80 | 90 | 0 | 0 | 30 | 30 | – | – | – | – | – | – | – | – | – | –
11 | Cc1cc([C@H]2CN(C)C(=O)[C@@H]2C(=O)Nc2cccc(F)c2F)ccc1Cl [Compound 929] | – | – | 20 | – | 90 | – | 70 | – | – | – | 30 | 50 | 90 | 90 | 80 | – | – | – | – | –
12 | Cc1cc([C@H]2CN(C)C(=O)[C@@H]2C(=O)Nc2ccc(F)c(F)c2F)ccc1Cl [Compound 931] | – | – | 30 | – | 90 | – | 90 | – | – | – | 30 | 40 | 90 | 90 | 70 | – | – | – | – | –
13 | Cc1cc([C@H]2CN(C)C(=O)[C@@H]2C(=O)Nc2ccccc2C(F)(F)F)ccc1Cl [Compound 932] | – | – | 0 | – | 90 | – | 40 | – | – | – | 30 | 30 | 100 | 70 | 60 | – | – | – | – | –
14 | CC(C)COc1cccc([C@H]2CN(C)C(=O)[C@@H]2C(=O)Nc2ccccc2F)c1 [Compound 1028] | – | – | – | – | – | – | – | – | – | – | – | 0 | 90 | 60 | 30 | 0 | 0 | 90 | 0 | 30
15 | CC(C)COc1cccc([C@H]2CN(C)C(=O)[C@@H]2C(=O)Nc2cccc(F)c2F)c1 [Compound 1029] | – | – | – | – | – | – | – | – | – | – | 0 | 0 | 90 | 90 | 90 | 0 | 0 | 90 | 0 | 70
